Legend:
KB tumor-bearing mice = assay: Ex vivo biodistribution in human KB tumor-bearing nude mice; details: for Ratio of tumor to Blood / Ratio of tumor to Kidney / Ratio of tumor to Liver / %ID/g Blood / %ID/g Bone / %ID/g Feces / %ID/g Gall bladder / %ID/g Heart / %ID/g Intestines (empty) / %ID/g Tumor / %ID/g Kidneys / %ID/g Liver / %ID/g Lung / %ID/g Muscle / %ID/g Salivary glands / %ID/g Spleen / %ID/g Stomach (empty): n = 3; for %ID/g Tumor: KB tumor
Method: All animal experiments were approved by the local veterinary department and complied with Swiss and local laws on animal protection. Female CD-1 nude mice (Charles River, Sulzfeld, Germany) were fed with a folate-deficient rodent diet (Harlan Laboratories, Indianapolis, IN, USA). After an acclimatization period of 5 to 7 days, human KB tumor cells (5 × 10^6 cells in 0.1 mL sterile phosphate-buffered saline (PBS)) were inoculated subcutaneously on both shoulders of each mouse. Twelve days later, the animals were intravenously injected with [^18 F]12 (approximately 5 MBq, 100 μL). […] Animals were euthanized at the indicated time points, and selected organs and tissues were collected, weighed, and measured in a γ-counter. The incorporated radioactivity was expressed as percentage injected dose per gram (%ID/g) of tissue. PET/computed tomography (CT) experiments were performed with a dedicated small-animal PET/CT scanner (eXplore Vista PET/CT, Sedecal, Algete, Spain/GE Healthcare). Animals were intravenously injected with [^18 F]12 (approximately 13 MBq, 100 μL). For scanning, mice were anesthetized with isoflurane in an air/oxygen mixture. The PET scans were acquired from 60 to 90 min post-injection (p.i.) followed by a CT. After acquisition, PET data were reconstructed in user-defined time frames, and the fused datasets of PET and CT were analyzed with PMOD software (version 3.4).
Biodistribution studies of the new ^18 F-folate [^18 F]12 were performed using human KB tumor-bearing nude mice, determined at 30, 60, and 90 min post-injection. […] Selective blocking of the folate receptors led to a decrease in specific radiotracer accumulation of 94% in KB tumors and 99% in kidneys (Figure 2). The strong blocking effect reflected the high specificity of the tracer to the FR in vivo. Unspecific liver uptake decreased from 5.2%ID/g to 2.1%ID/g over 90 min similar to the background radioactivity in the feces and gall bladder (Table 2), which is believed to be a beneficial effect of the increased polarity of this novel radiofolate. Compared to the biodistribution profile at 45 min post-injection of the former ^18 F-click folate by Ross and co-workers, the specific uptake of the original ^18 F-click folate in KB tumors was retained, whereas the specific kidney uptake more than doubled. This indicated a stronger tendency to renal excretion, more likely a result of the increased polarity of the new ^18 F-folate [^18 F]12. Additionally, the highest unspecific background accumulation in the gall bladder was reduced by half. This background reduction correlated with the more renal excretion and the two times lower k’ value as an indicator of lipophilicity of the here presented radiofolate. […] On the other hand, the still increased uptake levels in the gall bladder and feces were evidence of a prominent hepatobiliary elimination pathway of [^18 F]12. However, distinct changes in the molecular structure of the folate-based radioconjugate [^18 F]12 induced a higher polarity into the lead molecule ^18 F-click folate and a significant reduction of the in vivo background.
Figure 2 Results of ex vivo biodistribution studies under control and blockade conditions using [^18 F]12 in mice. The human KB tumor-bearing nude mice were euthanized 60 min post-injection. Data are expressed as percentage injected dose per gram tissue (%ID/g).

folate receptor = molecular target: T1, folate receptor (Homo sapiens, UniProt P15328); assay: Displacement assay with [^3H]folic acid on FR-positive human KB cells; assay type: binding; details: Cheng-Prusoff equation, assuming Kd of [^3H]folic acid 1 nM
T1 construct: using [^3H]folic acid and human KB cells in cell suspension; endogenous in cells; host or cells: human KB cells
T1 sequence (P15328 25-257): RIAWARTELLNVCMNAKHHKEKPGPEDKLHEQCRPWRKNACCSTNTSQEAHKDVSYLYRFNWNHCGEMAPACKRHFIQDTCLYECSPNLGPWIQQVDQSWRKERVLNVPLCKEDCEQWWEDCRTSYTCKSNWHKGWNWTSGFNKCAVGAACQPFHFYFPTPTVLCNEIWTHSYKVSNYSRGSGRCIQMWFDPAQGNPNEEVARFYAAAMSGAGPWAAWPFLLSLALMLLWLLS
Method: FR-positive human KB cells were kept under folate-deficient conditions to adjust the folate concentration levels to that of the human serum.
Figure 1 Displacement assay. […] Experiments were conducted in triplicate (n = 3).

[1] = 60 min p.i., 100 μg native folic acid before tracer
[2] = 60 min p.i. blockade (100 μg folic acid 5 min before tracer)

16-(4-(((2-amino-4-oxo-3,4-dihydropteridin-6-yl)methyl)amino)benzamido)-1-(4-(2-(2-(2-[^18 F]fluoroethoxy)ethoxy)ethoxy)-1H-1,2,3-triazol-1-yl)-13-oxo-3,6,9-trioxa-12-azaheptadecan-17-oic acid [[^18 F]12]
Ratio of tumor to Blood (KB tumor-bearing mice; 30 min p.i.): 16.81 ± 3.13 | Ratio of tumor to Kidney (KB tumor-bearing mice; 30 min p.i.): 0.08 ± 0.02 | Ratio of tumor to Liver (KB tumor-bearing mice; 30 min p.i.): 0.69 ± 0.22 | decrease in specific radiotracer accumulation by FR blocking, KB tumors (KB tumor-bearing mice; [1]): 94% | decrease in specific radiotracer accumulation by FR blocking, kidneys (KB tumor-bearing mice; [1]): 99% | Ratio of tumor to Blood (KB tumor-bearing mice; 60 min p.i.): 18.95 ± 2.68 | Ratio of tumor to Kidney (KB tumor-bearing mice; 60 min p.i.): 0.08 ± 0.01 | Ratio of tumor to Liver (KB tumor-bearing mice; 60 min p.i.): 0.86 ± 0.19 | Ratio of tumor to Blood (KB tumor-bearing mice; 90 min p.i.): 22.72 ± 6.73 | Ratio of tumor to Kidney (KB tumor-bearing mice; 90 min p.i.): 0.09 ± 0.01 | Ratio of tumor to Liver (KB tumor-bearing mice; 90 min p.i.): 1.55 ± 0.15 | %ID/g Blood (KB tumor-bearing mice; 30 min p.i.): 0.20 ± 0.02 %ID/g | %ID/g Blood (KB tumor-bearing mice; [2]): 0.04 ± 0.01 %ID/g | %ID/g Blood (KB tumor-bearing mice; 60 min p.i.): 0.18 ± 0.01 %ID/g | %ID/g Blood (KB tumor-bearing mice; 90 min p.i.): 0.16 ± 0.02 %ID/g | %ID/g Bone (KB tumor-bearing mice; 30 min p.i.): 1.47 ± 0.05 %ID/g | %ID/g Bone (KB tumor-bearing mice; [2]): 0.06 ± 0.06 %ID/g | %ID/g Bone (KB tumor-bearing mice; 60 min p.i.): 1.13 ± 0.21 %ID/g | %ID/g Bone (KB tumor-bearing mice; 90 min p.i.): 0.84 ± 0.16 %ID/g | %ID/g Feces (KB tumor-bearing mice; 30 min p.i.): 164.2 ± 72.5 %ID/g | %ID/g Feces (KB tumor-bearing mice; [2]): 105.5 ± 128.7 %ID/g | %ID/g Feces (KB tumor-bearing mice; 60 min p.i.): 29.48 ± 19.04 %ID/g | %ID/g Feces (KB tumor-bearing mice; 90 min p.i.): 11.36 ± 4.29 %ID/g | %ID/g Gall bladder (KB tumor-bearing mice; 30 min p.i.): 309.3 ± 187.6 %ID/g | %ID/g Gall bladder (KB tumor-bearing mice; [2]): 775.5 ± 206.5 %ID/g | %ID/g Gall bladder (KB tumor-bearing mice; 60 min p.i.): 133.2 ± 67.38 %ID/g | %ID/g Gall bladder (KB tumor-bearing mice; 90 min p.i.): 55.13 %ID/g | %ID/g Heart (KB tumor-bearing mice; 30 min p.i.): 1.81 ± 0.61 %ID/g | %ID/g Heart (KB tumor-bearing mice; [2]): 0.02 ± 0.01 %ID/g | %ID/g Heart (KB tumor-bearing mice; 60 min p.i.): 1.09 ± 0.07 %ID/g | %ID/g Heart (KB tumor-bearing mice; 90 min p.i.): 0.79 ± 0.16 %ID/g | %ID/g Intestines (empty) (KB tumor-bearing mice; 30 min p.i.): 23.52 ± 7.37 %ID/g | %ID/g Intestines (empty) (KB tumor-bearing mice; [2]): 14.72 ± 19.32 %ID/g | %ID/g Intestines (empty) (KB tumor-bearing mice; 60 min p.i.): 4.56 ± 2.31 %ID/g | %ID/g Intestines (empty) (KB tumor-bearing mice; 90 min p.i.): 1.92 ± 0.52 %ID/g | %ID/g Tumor (KB tumor-bearing mice; 30 min p.i.): 3.4 %ID/g | %ID/g Tumor (KB tumor-bearing mice; 30 min p.i., listed as 12): 3.39 ± 0.54 %ID/g | %ID/g Tumor (KB tumor-bearing mice; [2]): 0.19 ± 0.07 %ID/g | %ID/g Tumor (KB tumor-bearing mice; 60 min p.i.): 3.39 ± 0.44 %ID/g | %ID/g Tumor (KB tumor-bearing mice; 90 min p.i.): 3.54 ± 0.68 %ID/g | %ID/g Kidneys (KB tumor-bearing mice; 30 min p.i.): 42 %ID/g | %ID/g Kidneys (KB tumor-bearing mice; 30 min p.i., listed as 12): 41.80 ± 2.58 %ID/g | %ID/g Kidneys (KB tumor-bearing mice; [2]): 0.26 ± 0.08 %ID/g | %ID/g Kidneys (KB tumor-bearing mice; 60 min p.i.): 40.77 ± 4.34 %ID/g | %ID/g Kidneys (KB tumor-bearing mice; 90 min p.i.): 41.04 ± 7.04 %ID/g | %ID/g Liver (KB tumor-bearing mice; 30 min p.i.): 5.2 %ID/g | %ID/g Liver (KB tumor-bearing mice; 30 min p.i., listed as 12): 5.24 ± 1.57 %ID/g | %ID/g Liver (KB tumor-bearing mice; [2]): 0.21 ± 0.09 %ID/g | %ID/g Liver (KB tumor-bearing mice; 60 min p.i.): 4.05 ± 0.67 %ID/g | %ID/g Liver (KB tumor-bearing mice; 90 min p.i.): 2.1 %ID/g | %ID/g Liver (KB tumor-bearing mice; 90 min p.i., listed as 12): 2.30 ± 0.54 %ID/g | %ID/g Lung (KB tumor-bearing mice; 30 min p.i.): 1.21 ± 0.15 %ID/g | %ID/g Lung (KB tumor-bearing mice; [2]): 0.04 ± 0.03 %ID/g | %ID/g Lung (KB tumor-bearing mice; 60 min p.i.): 1.02 ± 0.7 %ID/g | %ID/g Lung (KB tumor-bearing mice; 90 min p.i.): 0.86 ± 0.17 %ID/g | %ID/g Muscle (KB tumor-bearing mice; 30 min p.i.): 1.91 ± 0.25 %ID/g | %ID/g Muscle (KB tumor-bearing mice; [2]): 0.08 ± 0.09 %ID/g | %ID/g Muscle (KB tumor-bearing mice; 60 min p.i.): 1.64 ± 0.46 %ID/g | %ID/g Muscle (KB tumor-bearing mice; 90 min p.i.): 1.17 ± 0.03 %ID/g | %ID/g Salivary glands (KB tumor-bearing mice; 30 min p.i.): 8.01 ± 1.16 %ID/g | %ID/g Salivary glands (KB tumor-bearing mice; [2]): 0.20 ± 0.18 %ID/g | %ID/g Salivary glands (KB tumor-bearing mice; 60 min p.i.): 9.28 ± 1.68 %ID/g | %ID/g Salivary glands (KB tumor-bearing mice; 90 min p.i.): 7.03 ± 1.98 %ID/g | %ID/g Spleen (KB tumor-bearing mice; 30 min p.i.): 0.53 ± 0.14 %ID/g | %ID/g Spleen (KB tumor-bearing mice; [2]): 0.06 ± 0.03 %ID/g | %ID/g Spleen (KB tumor-bearing mice; 60 min p.i.): 0.49 ± 0.04 %ID/g | %ID/g Spleen (KB tumor-bearing mice; 90 min p.i.): 0.43 ± 0.08 %ID/g | %ID/g Stomach (empty) (KB tumor-bearing mice; 30 min p.i.): 2.18 ± 0.76 %ID/g | %ID/g Stomach (empty) (KB tumor-bearing mice; [2]): 0.12 ± 0.11 %ID/g | %ID/g Stomach (empty) (KB tumor-bearing mice; 60 min p.i.): 1.39 ± 0.13 %ID/g | %ID/g Stomach (empty) (KB tumor-bearing mice; 90 min p.i.): 0.96 ± 0.37 %ID/g | Ki (folate receptor): 1.6 nM
